Each structure is given as a SMILES string.

The source of these data is patent US8759295B2, “Peptide-peptidase inhibitor conjugates and methods of using same” (Amylin Pharmaceuticals, LLC, priority 2006, dated 2014).

The experiment deals with T1, ACE from rabbit lung (Oryctolagus cuniculus, UniProt P12822).
T1 construct: ACE from rabbit lung, Sigma Chemical Co., St. Louis, Mo; purchased Sigma Chemical Co., St. Louis, Mo; host or cells: rabbit lung (tissue-derived enzyme)
T1 sequence (P12822 34-1310): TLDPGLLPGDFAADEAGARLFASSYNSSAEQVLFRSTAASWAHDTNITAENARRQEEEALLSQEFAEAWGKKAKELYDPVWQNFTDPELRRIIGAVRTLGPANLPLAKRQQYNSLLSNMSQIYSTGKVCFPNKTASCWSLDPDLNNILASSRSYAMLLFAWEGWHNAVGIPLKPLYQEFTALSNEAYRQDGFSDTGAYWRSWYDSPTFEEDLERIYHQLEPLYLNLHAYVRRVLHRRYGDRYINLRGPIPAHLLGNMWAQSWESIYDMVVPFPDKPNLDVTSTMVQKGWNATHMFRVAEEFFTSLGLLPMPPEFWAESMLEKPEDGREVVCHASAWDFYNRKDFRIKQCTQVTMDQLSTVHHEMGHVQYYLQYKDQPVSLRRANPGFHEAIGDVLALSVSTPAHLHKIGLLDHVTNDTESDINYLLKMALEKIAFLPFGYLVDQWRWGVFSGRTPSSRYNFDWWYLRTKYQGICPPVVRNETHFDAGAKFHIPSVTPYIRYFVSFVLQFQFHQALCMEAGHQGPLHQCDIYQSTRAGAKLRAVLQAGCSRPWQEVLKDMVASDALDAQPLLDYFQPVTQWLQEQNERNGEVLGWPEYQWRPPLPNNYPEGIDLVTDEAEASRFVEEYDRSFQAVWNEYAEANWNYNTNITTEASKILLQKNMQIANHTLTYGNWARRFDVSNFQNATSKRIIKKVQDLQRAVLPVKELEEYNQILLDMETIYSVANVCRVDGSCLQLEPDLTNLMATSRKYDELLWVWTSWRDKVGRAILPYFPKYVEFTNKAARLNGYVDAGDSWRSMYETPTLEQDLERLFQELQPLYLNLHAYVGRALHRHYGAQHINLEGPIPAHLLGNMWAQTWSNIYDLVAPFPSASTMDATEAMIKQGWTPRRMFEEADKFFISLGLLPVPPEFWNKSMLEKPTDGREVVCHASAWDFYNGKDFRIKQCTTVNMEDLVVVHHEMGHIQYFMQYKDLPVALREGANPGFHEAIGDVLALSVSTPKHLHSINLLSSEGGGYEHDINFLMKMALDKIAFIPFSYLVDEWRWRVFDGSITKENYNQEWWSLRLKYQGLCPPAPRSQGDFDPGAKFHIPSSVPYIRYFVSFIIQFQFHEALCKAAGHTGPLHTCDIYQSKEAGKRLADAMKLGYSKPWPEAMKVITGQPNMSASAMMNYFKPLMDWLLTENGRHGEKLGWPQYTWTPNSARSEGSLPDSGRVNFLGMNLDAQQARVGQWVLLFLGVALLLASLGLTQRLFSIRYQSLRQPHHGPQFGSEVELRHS
The experiment can be described thus: ACE inhibition assay. The format is biochemical. The method, then: Peptide-ACE peptidase inhibitor conjugate compounds were assessed in an ACE inhibition assay using purified ACE enzyme and chromogenic substrates. An ACE stock solution was prepared by dissolving 0.1 unit of enzyme (ACE from rabbit lung, Sigma Chemical Co., St. Louis, Mo.) in 0.640 mL of HEPES buffer (0.1 M, pH=8). A 2 mM stock solution of substrate (N-benzyloxycarbonyl-Phe-His-Leu-OH) dissolved in methanol. The ACE inhibitor compounds were dissolved in phosphate buffer (0.1 M, pH=8) at concentrations of 0.0, 1, 10, 20, 60 and 100 μM. For the inhibition assay, six 2 mL microcentrifuge tubes were prepared containing 1.45 mL of phosphate buffer pH=8, 0.05 mL of 10% NaCl and 0.015 mL of substrate solution. To each microcentrifuge tube was added 0.015 mL of one of the ACE inhibitor compound's stock solutions. The solutions were heated at 37° C. for about 5 minutes. […] Initial rates were determined from linear portions of product release curves. […] Apparent binding constants (Kd^app or Ki^app) of inhibitors to ACE were determined by fitting inhibition curves (initial rate vs. inhibitor concentration) to equation:
[formula] where v0 is reaction rate in the absence of inhibitor and [I]—inhibitor concentration. Fits were done by least-squares method using KaleidaGraph 3.6 (Synergy Software, Reading Pa.).

As to `CC[C@H](C)[C@H](NC(=O)[C@H](Cc1ccccc1)NC(=O)[C@H](CCC(=O)O)NC(=O)[C@H](CCCCN)NC(=O)[C@H](C)NC(=O)[C@H](C)NC(=O)[C@H](CCC(N)=O)NC(=O)CNC(=O)[C@H](CCC(=O)O)NC(=O)[C@H](CC(C)C)NC(=O)[C@H](Cc1ccc(O)cc1)NC(=O)[C@H](CO)NC(=O)[C@H](CO)NC(=O)[C@@H](NC(=O)[C@H](CC(=O)O)NC(=O)[C@H](CO)NC(=O)[C@@H](NC(=O)[C@H](Cc1ccccc1)NC(=O)[C@@H](NC(=O)CNC(=O)[C@H](CCC(=O)O)NC(=O)[C@H](C)NC(=O)[C@@H](N)Cc1c[nH]cn1)[C@@H](C)O)[C@@H](C)O)C(C)C)C(=O)N[C@@H](C)C(=O)N[C@@H](Cc1c[nH]c2ccccc12)C(=O)N[C@@H](CC(C)C)C(=O)N[C@H](C(=O)N[C@@H](CCCCN)C(=O)NCC(=O)N[C@@H](CCCNC(=N)N)C(=O)NCC(=O)NCCCC(=O)NCCCC[C@H](NC(=O)[C@@H]1CCC(=O)N1)C(=O)N[C@@H](Cc1c[nH]c2ccccc12)C(=O)N[C@@H](C)C(=O)N1CCC[C@H]1C(=O)O)C(C)C` [3633/38, GLP-1-(7-37)-γ-Abu-N^ε2Lys-(Pyr)-WAP-OH], the IC50 was above 10 µM.
